ChEMBL document CHEMBL2073821, “Immunohistochemical and functional characterization of pH-dependent intestinal absorption of weak organic acids by the monocarboxylic acid transporter MCT1” (J Pharm Pharmacol, 1999)
Square brackets hold non-standard residues; d marks the D form. Peptide text beside a SMILES is read from it. Sar = CNCC(=O)O

Experiments:
Format in all cases: functional, cell-based
Conditions in all cases: MDA-MB-231
[1] = target: T1, Monocarboxylate transporter 1 (Rattus norvegicus) (UniProt P53987); test: TP_TRANSPORTER: uptake of Valproic acid at a concentration of 19uM in MCT1-expressing MDA-MB231 cells
T1 sequence (whole entry): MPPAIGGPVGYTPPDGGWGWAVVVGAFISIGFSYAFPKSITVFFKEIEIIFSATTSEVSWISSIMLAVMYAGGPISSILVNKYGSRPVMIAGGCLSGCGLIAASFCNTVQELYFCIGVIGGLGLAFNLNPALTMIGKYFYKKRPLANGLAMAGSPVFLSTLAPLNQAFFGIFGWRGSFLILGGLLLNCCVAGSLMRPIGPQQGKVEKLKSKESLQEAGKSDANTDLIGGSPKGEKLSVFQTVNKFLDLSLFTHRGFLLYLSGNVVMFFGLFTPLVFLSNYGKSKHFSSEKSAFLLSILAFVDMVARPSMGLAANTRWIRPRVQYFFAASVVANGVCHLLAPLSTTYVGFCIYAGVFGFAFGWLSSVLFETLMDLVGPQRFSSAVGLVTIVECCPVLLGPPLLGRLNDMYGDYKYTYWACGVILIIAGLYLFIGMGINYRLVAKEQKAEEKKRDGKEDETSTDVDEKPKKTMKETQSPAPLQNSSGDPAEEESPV

[2] = target: T1, Monocarboxylate transporter 1 (Rattus norvegicus); test: TP_TRANSPORTER: uptake of Glycylsarcosine at a concentration of 17uM in MCT1-expressing MDA-MB231 cells
[3] = target: T1, Monocarboxylate transporter 1 (Rattus norvegicus); test: TP_TRANSPORTER: uptake of P-Aminohippuric acid at a concentration of 9uM in MCT1-expressing MDA-MB231 cells
[4] = target: T1, Monocarboxylate transporter 1 (Rattus norvegicus); test: TP_TRANSPORTER: uptake of Faropenem at a concentration of 76uM in MCT1-expressing MDA-MB231 cells
[5] = target: T1, Monocarboxylate transporter 1 (Rattus norvegicus); test: TP_TRANSPORTER: uptake of Mevalonic acid at a concentration of 67uM in MCT1-expressing MDA-MB231 cells
[6] = target: T1, Monocarboxylate transporter 1 (Rattus norvegicus); test: TP_TRANSPORTER: uptake of Glutamic acid at a concentration of 0.01uM in MCT1-expressing MDA-MB231 cells
[7] = target: T1, Monocarboxylate transporter 1 (Rattus norvegicus); test: TP_TRANSPORTER: uptake of D-Lactic Acid at a concentration of 3uM in MCT1-expressing MDA-MB231 cells
[8] = target: T1, Monocarboxylate transporter 1 (Rattus norvegicus); test: TP_TRANSPORTER: uptake of Methotrexate at a concentration of 0.03uM in MCT1-expressing MDA-MB231 cells
[9] = target: T1, Monocarboxylate transporter 1 (Rattus norvegicus); test: TP_TRANSPORTER: uptake of Propionic acid at a concentration of 7uM in MCT1-expressing MDA-MB231 cells
[10] = target: T1, Monocarboxylate transporter 1 (Rattus norvegicus); test: TP_TRANSPORTER: uptake of Butyric acid at a concentration of 137uM in MCT1-expressing MDA-MB231 cells
[11] = target: T1, Monocarboxylate transporter 1 (Rattus norvegicus); test: TP_TRANSPORTER: uptake of Foscarnet at a concentration of 3uM in MCT1-expressing MDA-MB231 cells

Compound: CCCC(CCC)C(=O)O
- Activity [1]: is not a substrate [-]

Compound: CN(CC(=O)O)C(=O)CN (H-Gly-[Sar]-OH)
- Activity [2]: is not a substrate [-]

Compound: Nc1ccc(C(=O)NCC(=O)O)cc1
- Activity [3]: is not a substrate [-]

Compound: C[C@@H](O)[C@H]1C(=O)N2C(C(=O)O)=C([C@H]3CCCO3)S[C@H]12
- Activity [4]: is not a substrate [-]

Compound: C[C@@](O)(CCO)CC(=O)O
- Activity [5]: is not a substrate [-]

Compound: N[C@@H](CCC(=O)O)C(=O)O
- Activity [6]: is not a substrate [-]

Compound: C[C@@H](O)C(=O)O
- Activity [7]: substrate [+]

Compound: CN(Cc1cnc2nc(N)nc(N)c2n1)c1ccc(C(=O)N[C@@H](CCC(=O)O)C(=O)O)cc1
- Activity [8]: is not a substrate [-]

Compound: CCC(=O)O
- Activity [9]: substrate [+]

Compound: CCCC(=O)O
- Activity [10]: substrate [+]

Compound: O=C(O)P(=O)(O)O
- Activity [11]: substrate [+]
